Measured values published in US20250116604A1, “FL[…] OF PERF[…] LIVING CULTURES OF A NEWLY ISOLATED P[…]. BACTERIUM” (The Government of the United States of America, as …, priority 2023, published 2025).

Tested on: Pseudomonas sp. CBR-F
Test: Fluorescent response of living Pseudomonas sp. CBR-F cultures to perfluoroalkyl substances
Format: cell-based
Conditions: excitation 425 nm; for fluorescent response of Pseudomonas sp. CBR-F: R2A medium, 96 well plate, 12-16 hours at 30° C.; for fluorescent response of Pseudomonas sp. CBR-F / form of the fluorescence response versus concentration: emission 475 nm; for form of the fluorescence response versus concentration: log of concentration plotted against the measured fluorescence; for limit of detection: ppb (micrograms/liter), fluorescence at 475 nm
Method: To perform an assay, CBR-F was inoculated into medium containing Reasoner's 2A medium (R2A) diluted from a 2× stock with the test sample in a 96 well plate. Internal standards using PFOA are run each time as a calibration curve. Following incubation for a number of hours (for example, 12-16 hours at 30° C.), fluorescence was measured at 475 nm with an excitation of 425 nm after the cultures have grown with shaking at 150 rpm for 15 hours using a 96 well plate reader with fluorescent capabilities. The log of PFOA concentration is plotted against the measured fluorescence, and a linear trend is calculated. The trendline formula is used to calculate PFOA/PFOS concentrations in the sample.

Structure (SMILES)	fluorescent response of Pseudomonas sp. CBR-F	form of the fluorescence response versus concentration	limit of detection [ppb]
O=C(O)C(F)(F)C(F)(F)C(F)(F)C(F)(F)C(F)(F)C(F)(F)C(F)(F)F [PFOA, perfluorooctanoic acid]	produces fluorescence	linear relative to the log	50
O=S(=O)(O)C(F)(F)C(F)(F)C(F)(F)C(F)(F)C(F)(F)C(F)(F)C(F)(F)C(F)(F)F [PFOS, perfluorooctanesulfonic acid]	produces fluorescence	linear relative to the log	50
